Measured values published in article PMC2650736 (Drug metabolism and disposition: the biological fate of …, 2008).
Like-named read-outs stand apart in the source and are kept apart here.

What was measured:
[1] = format: in vivo, human; conditions: for Cmax: read-out: Cmax, Geometric Mean (CV %)
[2] = tested on: Caco-2 cell monolayers; assay: Midazolam absorptive permeability in Caco-2 cell monolayers; format: in vitro ADME, human
[3] = as above; format: in vitro ADME, human; conditions: human, apical to basolateral, midazolam 3 μM
[4] = CBJ, single oral 5 mg midazolam
[5] = water, single oral 5 mg midazolam

SMILES: OCc1ncc2n1-c1ccc(Cl)cc1C(c1ccccc1F)=NC2 [1'-Hydroxymidazolam, 1'-hydroxymidazolam]
- tmax [median (range)] ([1]; CBJ (3 × 240 ml sweetened double-strength juice E), single oral 5 mg midazolam): 2.0 (1.0−6.0) h
- AUC0-∞, Geometric Mean (CV %) [1, 4]: 62 (25) nM●h
- AUClast, Geometric Mean (CV %) [1, 4]: 55 (23) nM●h
- t1/2 (terminal half-life), Geometric Mean (CV %) [1, 4]: 3.3 (19) h
- Cmax [1, 4]: 10 nM
- Cmax [1, 5]: 33 nM
- AUC0-∞, CBJ / Water Ratio [90% CI] ([1]; single oral 5 mg midazolam): 0.84 [0.77−0.92]
- AUClast, CBJ / Water Ratio [90% CI] ([1]; single oral 5 mg midazolam): 0.80 [0.73−0.88]
- Cmax, CBJ / Water Ratio [90% CI] ([1]; single oral 5 mg midazolam): 0.32 [0.27−0.38]
- t1/2, CBJ / Water Ratio [90% CI] ([1]; single oral 5 mg midazolam): 1.04 [0.89−1.20]
- AUC0-∞, Geometric Mean (CV %) [1, 5]: 74 (37) nM●h
- AUClast, Geometric Mean (CV %) [1, 5]: 69 (35) nM●h
- t1/2 (terminal half-life), Geometric Mean (CV %) [1, 5]: 3.2 (35) h
- tmax [median (range)] ([1]; water, single oral 5 mg midazolam, 16 healthy volunteers): 0.5 (0.25−1.5) h

SMILES: Cc1ncc2n1-c1ccc(Cl)cc1C(c1ccccc1F)=NC2 [midazolam]
- total amount of midazolam recovered from apical and basolateral chambers ([2]; all time points, all conditions): ≥ 80 % of the initial amount added to the apical chamber
- amount of midazolam recovered from cell scrapings ([2]; end of 4-hour experiment, all four conditions): 7−9 % of the initial amount added to the apical chamber
- Papp A→B at 3 μM ([3]; Caco-2, Papp, acidic pH (5.5)): 21.9 ± 3.3 ×10⁻⁶ cm/s
- Papp A→B at 3 μM ([3]; Caco-2, pH 7.4, Papp, control (plain incubation medium, pH 7.4)): 19.4 ± 1.8 ×10⁻⁶ cm/s
- Papp A→B at 3 μM ([3]; Caco-2, pH 7.4, Papp, high glucose (50 g/L, pH 7.4)): 18.9 ± 2.8 ×10⁻⁶ cm/s
- CI/F, Geometric Mean (CV %) [1, 4]: 54 (30) L/h
- t1/2 (terminal half-life), Geometric Mean (CV %) [1, 4]: 2.9 (25) h
- half-life ([1]; human, plasma, po, 5 mg): 2.9 h
- AUC0-∞, CBJ / Water Ratio [90% CI] ([1]; single oral 5 mg midazolam): 1.33 [1.17−1.50]
- AUClast, CBJ / Water Ratio [90% CI] ([1]; single oral 5 mg midazolam): 1.31 [1.18−1.46]
- CI/F, CBJ / Water Ratio [90% CI] ([1]; single oral 5 mg midazolam): 0.75 [0.67−0.85]
- Cmax, CBJ / Water Ratio [90% CI] ([1]; single oral 5 mg midazolam): 0.56 [0.49−0.64]
- t1/2, CBJ / Water Ratio [90% CI] ([1]; single oral 5 mg midazolam): 1.01 [0.86−1.19]
- CI/F, Geometric Mean (CV %) [1, 5]: 71 (33) L/h
